Biological target: FPRL-1 (Homo sapiens (Human), UniProt P25090)
Experiment: FPRL-1 Ga16-CHO EC50 (efficacy)
Assay type: cell-based
Settings: Table 3; value in parentheses

Chain of FPRL-1 (P25090 whole entry): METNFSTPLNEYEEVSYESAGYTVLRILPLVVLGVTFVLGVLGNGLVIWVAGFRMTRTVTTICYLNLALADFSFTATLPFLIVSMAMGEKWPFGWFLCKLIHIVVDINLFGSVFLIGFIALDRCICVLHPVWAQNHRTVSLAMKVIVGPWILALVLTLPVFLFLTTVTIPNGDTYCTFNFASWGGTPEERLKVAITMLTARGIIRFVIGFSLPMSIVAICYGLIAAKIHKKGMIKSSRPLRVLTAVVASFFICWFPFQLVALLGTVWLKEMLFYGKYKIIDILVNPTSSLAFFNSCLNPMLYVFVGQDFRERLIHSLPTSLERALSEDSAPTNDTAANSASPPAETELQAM

SMILES | FPRL-1 Ga16-CHO (efficacy)
CCC1(CC)NC(=O)N(CC(=O)Nc2ccc(F)cc2)C1=O [2-(4,4-diethyl-2,5-dioxoimidazolidin-1-yl)-N-(4-fluorophenyl)acetamide] | 0.67
O=C(CN1C(=O)C2CC=CCC2C1=O)Nc1ccc(Br)cc1 (stereo not drawn) [N-(4-bromophenyl)-1,3,3a,4,7,7a-hexahydro-1,3-dioxo-2H-isoindole-2-acetamide] | 0.98
O=C(CN1C(=O)C2C3C=CC(C3)C2C1=O)Nc1ccc(Br)cc1 (stereo not drawn) [N-(4-bromophenyl)-1,3,3a,4,7,7a-hexahydro-1,3-dioxo-4,7-methano-2H-isoindole-2-acetamide] | 0.90
O=C(CN1C(=O)NC2(CCCC2)C1=O)Nc1ccc(Br)cc1 [N-(4-bromophenyl)-2-(2,4-dioxo-1,3-diazaspiro[4.4]non-3-yl)acetamide] | 0.96
O=C(CN1C(=O)NC2(CCCCC2)C1=O)Nc1ccc(Br)cc1 [N-(4-bromophenyl)-2-(2,4-dioxo-1,3-diazaspiro[4.5]dec-3-yl)acetamide] | 0.89
O=C(CN1C(=O)NC2(CCCCCC2)C1=O)Nc1ccc(Br)cc1 [N-(4-bromophenyl)-2-(2,4-dioxo-1,3-diazaspiro[4.6]undec-3-yl)acetamide] | 0.96
CCCC1(CCC)NC(=O)N(CC(=O)Nc2ccc(Br)cc2)C1=O [N-(4-bromophenyl)-2-(2,5-dioxo-4,4-dipropylimidazolidin-1-yl)acetamide] | 0.98
CCC1(CC)NC(=O)N(CC(=O)Nc2ccc(Br)cc2)C1=O [N-(4-bromophenyl)-2-(4,4-diethyl-2,5-dioxoimidazolidin-1-yl)acetamide] | 0.98
CC1(C)NC(=O)N(CC(=O)Nc2ccc(Br)cc2)C1=O [N-(4-bromophenyl)-2-(4,4-dimethyl-2,5-dioxoimidazolidin-1-yl)acetamide] | 0.94
CC1(C2CC2)NC(=O)N(CC(=O)Nc2ccc(Br)cc2)C1=O (stereo not drawn) [N-(4-bromophenyl)-2-(4-cyclopropyl-4-methyl-2,5-dioxoimidazolidin-1-yl)acetamide] | 0.84
CCC1(c2ccccc2)NC(=O)N(CC(=O)Nc2ccc(Br)cc2)C1=O (stereo not drawn) [N-(4-bromophenyl)-2-(4-ethyl-2,5-dioxo-4-phenylimidazolidin-1-yl)acetamide] | 0.83
CCC1(C)NC(=O)N(CC(=O)Nc2ccc(Br)cc2)C1=O (stereo not drawn) [N-(4-bromophenyl)-2-(4-ethyl-4-methyl-2,5-dioxoimidazolidin-1-yl)acetamide] | 1.0
CC1(CCc2ccccc2)NC(=O)N(CC(=O)Nc2ccc(Br)cc2)C1=O (stereo not drawn) [N-(4-bromophenyl)-2-[4-methyl-2,5-dioxo-4-(2-phenylethyl)imidazolidin-1-yl]acetamide] | 0.88
CCC1(CC)NC(=O)N(CC(=O)Nc2ccc(Cl)cc2)C1=O [N-(4-chlorophenyl)-2-(4,4-diethyl-2,5-dioxoimidazolidin-l-yl)acetamide] | 0.79

Biological target: human FPR2 receptor (Homo sapiens (Human), UniProt P25090)
Sequence (P25090 whole entry): as above
Experiment: FLIPR Ca+2 response in HEK-Gα16 cells stably expressing the human FPR2 receptor
Assay type: cell-based
Settings: Table 4; HEK-Gα16 human FPR2, FLIPR
Experimental: HEK-Gα16 cells stably expressing the human FPR2 receptor was utilized. Cells were plated into 384-well poly-D-lysine coated plates at a density of 18,000 cells per well one day prior to use. The growth media was DMEM medium supplemented with 10% fetal bovine serum (FBS), 1% antibiotic-antimycotic, 50 μg/ml hygromycin, and 400 μg/ml geneticin. On the day of the experiment, the cells were washed twice with Hank's Balanced Salt Solution supplemented with 20 mM HEPES (HBSS/hepes buffer). The cells were then dye loaded with 2 μM Fluo-4 diluted in the HBSS/Hepes buffer and incubated at 37° C. for 40 minutes. Extracellular dye was removed by washing the cell plates four times prior to placing the plates in the FLIPR (Fluorometric Imaging Plate Reader, Molecular Devices). Ligands were diluted in HBSS/Hepes buffer and prepared in 384-well microplates. Data for Ca^+2 responses were obtained in relative fluorescence units.

SMILES | EC50 [nM]
O=C(O)[C@@H]1C2CCC([C@@H]1C(=O)Nc1ccc(Br)cc1)C21CC1 (relative stereo) [Compound 14, rel-(2R,3 S)-3-[(4-brornophenyl)carbarnoyl]spiro [bicyclo[2.2.1]heptane-7,1′-cyclopropane]-2-carboxylic acid] | 4
CSc1ccc(NC(=O)C2C(C(=O)O)C3C=CC2C32CC2)cc1 (stereo not drawn) [Compound 31, 3-{[4-(methylsulfanyl)phenyl]carbamoyl} spiro[bicyclo[2.2.1]heptane-7,1′-cyclopropane]-5-ene-2-carboxylic acid] | 14
CCOP(=O)(CCNC(=O)[C@H](CC(C)C)NC(=O)Nc1ccc(Br)cc1)OCC [Compound 119, diethyl (2-{[(2S)-2-{[(4-bromophenyl)carbamoyl]amino}-4-methylpentanoyl]amino}ethyl) phosphonate] | 16.1

Same assay, conditions: Table 4; value in parentheses, given mostly as fraction

SMILES | FPR2 (% eff) [%]
O=C(O)[C@@H]1C2CCC([C@@H]1C(=O)Nc1ccc(Br)cc1)C21CC1 (relative stereo) [Compound 14, rel-(2R,3 S)-3-[(4-brornophenyl)carbarnoyl]spiro [bicyclo[2.2.1]heptane-7,1′-cyclopropane]-2-carboxylic acid] | 90
CSc1ccc(NC(=O)C2C(C(=O)O)C3C=CC2C32CC2)cc1 (stereo not drawn) [Compound 31, 3-{[4-(methylsulfanyl)phenyl]carbamoyl} spiro[bicyclo[2.2.1]heptane-7,1′-cyclopropane]-5-ene-2-carboxylic acid] | 96
CC(C)C[C@H](NC(=O)Nc1ccc(Br)cc1)C(=O)N[C@@H](C)C(=O)O [Compound 90, (2S)-2-{[(2S)-2-{[(4-bromophenyl)carbamoyl]amino}-4-methylpentanoyl]amino} propanoic acid] | 100
CC(C)C[C@H](NC(=O)Nc1ccc(Br)cc1)C(=O)NCC(O)CO (stereo partly drawn) [Compound 95, (2S)-2-{[(4-bromophenyl)carbamoyl]amino}-N-(2,3-dihydroxypropyl)-4-methylpentanamide] | 98
CCOP(=O)(O)CNC(=O)[C@H](CC(C)C)NC(=O)Nc1ccc(Br)cc1 [Compound 105, ethyl hydrogen ({[(2S)-2-{[(4-bromophenyl)carbamoyl]amino}-4-methylpentanoyl]amino}methyl)phosphonate] | 88
CCOP(=O)(O)CNC(=O)[C@@H](NC(=O)Nc1ccc(Br)cc1)[C@@H](C)CC [Compound 115, ethyl hydrogen ({[(2S,3S)-2-{[(4-bromophenyl)carbamoyl]amino}-3-methylpentanoyl]amino}methyl)phosphonate] | 88
CC(C)C[C@H](NC(=O)Nc1ccc(Br)cc1)C(=O)NCc1cc(O)no1 [Compound 116, (2S)-2-{[(4-bromophenyl)carbamoyl]amino}-N-[(3-hydroxy-1,2-oxazol-5 - yl)methyl]-4-methylpentanamide] | 100
CCC[C@H](NC(=O)Nc1ccc(Br)cc1)C(=O)NCP(=O)(OCC)OCC [Compound 117, diethyl (1[(2S)-2-1[(4-bromophenyl)carbamoyl]amino}pentanoyl]amino}methyl) phosphonate] | 100
CCOP(=O)(CNC(=O)[C@H](Cc1ccccc1)NC(=O)Nc1ccc(Br)cc1)OCC [Compound 118, diethyl ({[(2S)-2-{[(4-bromophenyl)carbamoyl]amino}-3-phenylpropanoyl]amino}methyl)phosphonate] | 93
CCC[C@H](NC(=O)Nc1ccc(Br)cc1)C(=O)NCP(=O)(O)OCC [Compound 123, ethyl hydrogen ({[(2S)-2-{[(4-bromophenyl)carbamoyl]amino}pentanoyl]amino}methyl) phosphonate] | 96
CC(C)C[C@H](NC(=O)Nc1ccc(C(F)(F)F)cc1)C(=O)NCC(=O)O [Compound 124, {[(2S)-4-methyl-2-({[4-(trifluoromethyl)phenyl]carbamoyl}amino)pentanoyl]amino}acetic acid] | 100
CCOP(=O)(O)CNC(=O)[C@H](Cc1ccccc1)NC(=O)Nc1ccc(Br)cc1 [Compound 126, ethyl hydrogen ({[(2S)-2-{[(4-bromophenyl)carbamoyl]amino}-3-phenylpropanoyl]amino}methyl)phosphonate] | 100
CCOP(=O)(CNC(=O)[C@H](CC(C)C)NC(=O)Nc1ccc(C(F)(F)F)cc1)OCC [Compound 134, diethyl ({[(2S)-4-methyl-2-({[4-(trifluoromethyl)phenyl]carbamoyl}amino)pentanoyl]amino}methyl)phosphonate] | 97
CCOP(=O)(O)CNC(=O)[C@H](CC(C)C)NC(=O)Nc1ccc(C(F)(F)F)cc1 [Compound 135, ethyl hydrogen ({[(2S)-4-methyl-2-({[4-(trifluoromethyl)phenyl]carbamoyl}amino)pentanoyl]amino}methyl)phosphonate] | 91
CCOP(=O)(CNC(=O)[C@H](CC(C)C)NC(=O)Nc1ccc(SC)cc1)OCC [Compound 138] | 91
CCOP(=O)(CCNC(=O)CC1(C(C)C)NC(=O)N(NC(=O)Nc2ccc(Br)cc2)C1=O)OCC (stereo not drawn) [Compound 152, diethyl [2-({[1-{[(4-bromophenyl)carbamoyl]amino}-2,5-dioxo-4-(propan-2-yl)imidazolidin-4-yl]acetyl}amino)ethyl] phosphonate] | 100

Tested on: LL-37-induced inflammation in mouse ears
Experiment: LL37-induced model of rosacea in mice (ear thickness)
Assay type: in vivo
Settings: topical to ears; p<0.05 vs. vehicle; FIG. 2
Experimental: LL37-Induced Model of Rosacea in Mice:
Prior to dosing, animals are lightly anaesthetized with isofluorane and baseline right and left ear thickness measurements are made with a digital caliper (Mitutoyo 293-340). At t=−1 hrs, animals are lightly anaesthetized with isoflurane to allow topical application (dorsal side) of 10 μL of FPR2 agonist formulated in a vehicle consisting of PBS:ethanol (50:50), or vehicle control to both ears. At t=0 hr, mice are re-anaesthetized. Following ear thickness measurements, 20 uL of LL-37 (100 μM) is injected into the right ear, while PBS is injected into the left ear. Additional ear thickness measurements are taken at t=3 and 6 hours. After the last time point, mice are euthanized by CO2 inhalation and ears collected for additional analyses.

SMILES | inflammation induced by LL-37 in mouse ears
CC[C@H](C)[C@H](NC(=O)Nc1ccc(Br)cc1)C(=O)NCC(=O)O [Compound 3, {[(2S,3S)-2-{[(4-bromophenyl)carbamoyl]amino}-3-methylpentanoyl]amino} acetic acid] | Anti-inflammatory activity
CC(C)C[C@H](NC(=O)Nc1ccc(Br)cc1F)C(=O)NCC(=O)O [Compound 7, {[(2S)-2-{[(4-bromo-2-fluorophenyl)carbamoyl]amino}-4-methylpentanoyl]amino} acetic acid] | Anti-inflammatory activity
CC(C)C[C@H](NC(=O)Nc1ccc(Br)cc1)C(=O)NCC(=O)O [Compound 8, {[(2S)-2-{[(4-bromophenyl)carbamoyl]amino}-4-methylpentanoyl]amino} acetic acid] | Anti-inflammatory activity

— patent publication US10799518B2, “Use of agonists of formyl peptide receptor 2 for treating dermatological diseases” (Allergan, Inc., priority 2013, dated 2020)
